The results in this text go back to patent publication US8431698B2, “Bioluminescent endoscopy methods and compounds” (BioLume Inc., priority 2007, dated 2013).

Assay [1] has as its target T1, Renilla luciferase (Renilla reniformis, UniProt P27652).
T1 construct: made in house
T1 sequence (P27652 1-311): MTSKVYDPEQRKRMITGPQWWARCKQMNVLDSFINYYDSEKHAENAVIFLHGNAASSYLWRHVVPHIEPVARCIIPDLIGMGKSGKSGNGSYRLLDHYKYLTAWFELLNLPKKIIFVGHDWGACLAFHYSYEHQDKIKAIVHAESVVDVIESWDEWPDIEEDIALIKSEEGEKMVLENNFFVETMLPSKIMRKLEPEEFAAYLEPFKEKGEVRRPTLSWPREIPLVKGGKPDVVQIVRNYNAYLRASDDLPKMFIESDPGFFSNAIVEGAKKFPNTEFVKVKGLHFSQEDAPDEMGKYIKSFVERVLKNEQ
Description: Visible glow of coelenterazine with crude extract of bacteria expressing Renilla luciferase in assay buffer. The format is biochemical. To be noted: about 0.005 mg coelenterazine, about 0.25 ml crude extract, 100 ml assay buffer. On the procedure: In certain embodiments herein, about 1 to 10 mg, or preferably 2-5 mg, more preferably about 3 mg of coelenterazine will be used with about 100 mg of Renilla luciferase. The precise amounts, of course can be determined empirically, and, also will depend to some extent on the ultimate concentration and application.

Assay [2] has as its system aequorin photoprotein luciferase or luciferase from Renilla. Description: Duration of glow of luciferin in water after adding luciferase in presence of Ca++. Type of assay: biochemical. The note with it: 5 mg luciferin in one liter of water, about 10 mgs luciferase, Ca++ present; depends on water temperature. On the procedure:
Thus, for example, 5 mg of luciferin, such as coelenterazine, in one liter of water will glow brightly for at least about 10 to 20 minutes, depending on the temperature of the water, when about 10 mgs of luciferase, such as aequorin photoprotein luciferase or luciferase from Renilla, is added thereto in presence of Ca^++. Increasing the concentration of luciferase, for example, to 100 mg/L, provides a particularly brilliant light display.

The nature of assay [3]: Rat bioluminescence imaging after coelenterazine and Renilla luciferase via bilateral jugular cannulas. The format is in vivo. The note with it: coelenterazine 50 mM in Hank's balanced salt solution in one jugular cannula, Renilla luciferase 5 mg/ml in the opposite. On the procedure: A rat was equipped with bilateral jugular cannulas. To one was applied a solution of coelenterazine (50 mM) in Hank's balanced salt solution and to the opposite jugular cannula was administered Renilla luciferase, 5 mg/ml in Hank's balanced slat solution. An image was obtained and was pseudocoloured with Scion Image according to the light level obtained by a Princeton Instruments camera and is shown at FIG. 19.
A rat was equipped with bilateral jugular cannulas. To one was applied a solution of coelenterazine (50 mM) in Hank's balanced salt solution and to the opposite jugular cannula was administered Renilla luciferase, 5 mg/ml in Hank's balanced slat solution. An image was obtained and was pseudocoloured with Scion Image according to the light level obtained by a Princeton Instruments camera and is shown at FIG. 20.
A rat was equipped with bilateral jugular cannulas. To one was applied a solution of coelenterazine (50 mM) in Hank's balanced salt solution and to the opposite jugular cannula was administered Renilla luciferase, 5 mg/ml in Hank's balanced slat solution. An image was obtained and was pseudocoloured with Scion Image according to the light level obtained by a Princeton Instruments camera and is shown at FIG. 21.

Molecules are shown by their SMILES.

As to `Oc1ccc(Cc2nc3c(Cc4ccccc4)nc(-c4ccc(O)cc4)cn3c2O)cc1` [coelenterazine], the glow produced entry in assay [1] was “sufficient to produce a visible and lasting glow”. Further, in assay [2], the “time of bright glow” value lay within 10 to 20 min. In assay [3], the “bioluminescence image, liver (FIG. 20)” value is given as “patchy contrast regions in the liver” and the “bioluminescence image, whole animal (FIG. 21)” value was “perfusion of bioluminescence in the whole animal”.
